Results as given in ChEMBL document CHEMBL6103565, “Current strategies in design and synthesis of antifungals hybrid and chimeric diazine derivatives” (Bioorg Med Chem, 2025).
Converted amounts (≈) assume the structure as drawn. One block for each compound: values may come before it.

Columns and labels:
Cryptococcus neoformans = experiment: Antifungal activity against Cryptococcus neoformans assessed as reduction in fungal growth incubated for 24 hrs by broth microdilution method; type: functional
Candida albicans [1] = experiment: Antifungal activity against Candida albicans MTCC 227 by disc diffusion method; type: functional, organism-based
Aspergillus niger [2] = experiment: Antifungal activity against Aspergillus niger MTCC 282 by disc diffusion method; type: functional, organism-based
Aspergillus flavus = experiment: Antimicrobial activity against Aspergillus flavus assessed as zone of inhibition; type: functional
Nakaseomyces glabratus [3] = experiment: Antifungal activity against Candida glabrata ATCC 90030; type: functional
Candida albicans [4] = experiment: Antifungal activity against Candida albicans ATCC 10231; type: functional
Pichia kudriavzevii [5] = experiment: Antifungal activity against Candida krusei ATCC 6258; type: functional
Candida parapsilosis [6] = experiment: Antifungal activity against Candida parapsilosis ATCC 22019; type: functional; settings: Lodderomyces parapsilosis
Candida albicans [7] = experiment: Antimicrobial activity against Candida albicans ATCC 64124 assessed as reduction in microbial growth by CLSI protocol based micro-broth dilution method; type: functional
Trichophyton rubrum = experiment: Antifungal activity against Trichophyton rubrum assessed as diameter of zone inhibition; type: functional
Aspergillus niger [8] = experiment: Antifungal activity against Aspergillus niger assessed as zone of inhibition by disc diffusion method; type: functional
Candida tropicalis = experiment: Antifungal activity against Candida tropicalis assessed as zone of inhibition by disc diffusion method; type: functional
Botrytis cinerea = experiment: Antifungal activity against Botrytis cinerea assessed as reduction in fungal growth at 50 ug/ml relative to control; type: functional
Candida albicans [9] = experiment: Antifungal activity against Candida albicans assessed as reduction in fungal growth incubated for 48 hrs by broth micro-dilution method; type: functional
Botryosphaeria dothidea = experiment: Antifungal activity against Botryosphaeria dothidea assessed as reduction in fungal growth at 50 ug/ml relative to control; type: functional
[10] = tested on: Syncephalastrum racemosum; experiment: Antifungal activity against Syncephalastrum racemosum assessed as zone of inhibition; type: functional
Saccharomyces cerevisiae = experiment: Antimicrobial activity against Saccharomyces cerevisiae assessed as zone of inhibition; type: functional
Candida albicans [11] = experiment: Antifungal activity against Candida albicans assessed as zone of inhibition by serial dilution and disc diffusion method; type: functional
Candida albicans [12] = experiment: Antifungal activity against Candida albicans NRRL-Y477 assessed as zone of inhibition by disc diffusion method; type: functional
Candida albicans [13] = experiment: Antifungal activity against Candida albicans assessed as diameter of zone inhibition; type: functional
Candida albicans [14] = experiment: Antifungal activity against Candida albicans MTCC 3018 assessed as inhibition of fungal growth incubated for 24 hrs; type: functional
Candida albicans [15] = experiment: Antifungal activity against Candida albicans MTCC 4748 assessed as inhibition of fungal growth incubated for 24 hrs; type: functional
Pichia kudriavzevii [16] = experiment: Antifungal activity against Pichia kudriavzevii MTCC 3020 assessed as inhibition of fungal growth incubated for 24 hrs; type: functional
Candida parapsilosis [17] = experiment: Antifungal activity against Candida parapsilosis MTCC 1744 assessed as inhibition of fungal growth incubated for 24 hrs; type: functional; settings: Lodderomyces parapsilosis
Nakaseomyces glabratus [18] = experiment: Antifungal activity against Candida glabrata MTCC 3019 assessed as inhibition of fungal growth incubated for 24 hrs; type: functional
Candida albicans [19] = experiment: Antifungal activity against Candida albicans MTCC 227 assessed as inhibition of fungal growth incubated for 24 hrs; type: functional
Candida albicans [20] = experiment: Antifungal activity against Candida albicans MTCC 1637 assessed as inhibition of fungal growth incubated for 24 hrs; type: functional
Candida albicans [21] = experiment: Antifungal activity against Candida albicans MTCC 7315 assessed as inhibition of fungal growth incubated for 24 hrs; type: functional
Candida albicans [22] = experiment: Antifungal activity against Candida albicans MTCC 3017 assessed as inhibition of fungal growth incubated for 24 hrs; type: functional
Aspergillus fumigatus = experiment: Antifungal activity against Aspergillus fumigatus assessed as zone of inhibition; type: functional
Candida albicans [23] = experiment: Antifungal activity against Candida albicans ATCC 10231 assessed as zone of inhibition incubated for 24 hrs by disc diffusion method; type: functional

MIC (Cryptococcus neoformans): 12.5 µg/mL (≈ 23 µM)
Structure (SMILES): Cc1nc(NC(=O)c2cc(C(F)(F)F)cc(C(F)(F)F)c2)c2c(C(F)(F)F)cc(-c3ccccc3)nc2n1

EC50 (Candida albicans [1]): 0.15 µg/mL (≈ 0.38 µM)
EC50 (Aspergillus niger [2]): 0.15 µg/mL (≈ 0.38 µM)
Structure (SMILES): CC(=O)N1N=C(C2=C(C)NC(=O)NC2c2ccc(F)cc2)OC1c1ccccc1 (stereo unspecified)

Structure (SMILES): O=C1CSC(c2ccccc2)N1c1nc(-c2ccccc2)cc(-c2ccccn2)n1 (stereo unspecified)
inhibition zone (IZ) (Aspergillus flavus): 10 mm

MIC (Nakaseomyces glabratus [3]): 0.78 µg/mL (≈ 2.74 µM)
MIC50 (Candida albicans [4]): 0.78 µg/mL (≈ 2.74 µM)
MIC (Pichia kudriavzevii [5]): 0.78 µg/mL (≈ 2.74 µM)
MIC (Candida parapsilosis [6]): 0.78 µg/mL (≈ 2.74 µM)
Structure (SMILES): Nc1nc2ccccc2nc1NC1CC(C(=O)O)=CC1=O (stereo unspecified)

MIC (Candida albicans [7]): 4 µg/mL
Structure (SMILES): Cc1nc(-c2ccc(C(C)(C)C)cc2)sc1-c1ccnc(N[C@H]2CCCCC2CN)n1 (stereo partly specified)

Structure (SMILES): Cc1c(-c2ccc(Br)cc2)nnc(O)c1Br
inhibition zone (IZ) (Trichophyton rubrum): 14 mm

Structure (SMILES): COc1ccc(C2C3C(C)=NN(c4ccccc4)C3N=C3SCCN32)cc1 (stereo unspecified)
inhibition zone (IZ) (Aspergillus niger [8]): 24 mm
inhibition zone (IZ) (Candida tropicalis): 26 mm

Structure (SMILES): O=C(Nc1ccc(F)c(Cl)c1)c1ccc(Oc2cc(C(F)(F)F)ncn2)cc1
inhibition at 50 µg/mL (Botrytis cinerea): 91.7%

Structure (SMILES): O=C1CNC(c2ccc(Cl)cc2)N1c1nc(-c2ccc(Cl)cc2)cc(-c2ccccn2)n1 (stereo unspecified)
inhibition zone (IZ) (Aspergillus flavus): 10 mm

Structure (SMILES): Oc1nnc(-c2ccccc2Cl)cc1Br
inhibition zone (IZ) (Trichophyton rubrum): 14 mm

MIC (Candida albicans [9]): 3.12 µg/mL (≈ 7.02 µM)
Structure (SMILES): Cc1ccc(S(=O)(=O)Nc2nc(/N=N/c3c(N)nn4c(C)cc(=O)[nH]c34)cs2)cc1

MIC (Cryptococcus neoformans): 25 µg/mL (≈ 98.7 µM)
Structure (SMILES): NC(=S)NNC(=O)c1c[nH]c2ncnn2c1=O

Structure (SMILES): Cc1nc(Oc2ccc(C(=O)Nc3ccc(F)cc3)cc2)cc(C(F)(F)F)n1
inhibition at 50 µg/mL (Botryosphaeria dothidea): 85.9%

Structure (SMILES): CCc1nnc2c(Nc3ccc(Br)cc3)nc3ccccc3n12
inhibition zone (IZ) [10]: 20 mm

Structure (SMILES): COc1ccc(OC)c(/C=N/Nc2ncnc3[nH]ccc23)c1
inhibition zone (IZ) (Saccharomyces cerevisiae): 24 mm
inhibition zone (IZ) (Candida albicans [11]): 30 mm

Structure (SMILES): CCOC(=O)c1c(C)nc2sc3c(SCC(=O)Nc4ccc(C)cc4)ncnc3c2c1-c1cccs1
inhibition zone (IZ) (Candida albicans [12]): 25 mm
inhibition zone (IZ) (Aspergillus niger [8]): 24 mm

Structure (SMILES): Cc1cccc(-c2nc3ccccc3nc2N2CCN(Cc3ccccc3)CC2)c1
inhibition zone (IZ) (Candida albicans [13]): 14 mm

MIC (Candida albicans [14]): 3.9 µg/mL (≈ 9.15 µM)
MIC (Candida albicans [15]): 3.9 µg/mL (≈ 9.15 µM)
MIC (Pichia kudriavzevii [16]): 3.9 µg/mL (≈ 9.15 µM)
MIC (Candida parapsilosis [17]): 3.9 µg/mL (≈ 9.15 µM)
MIC (Nakaseomyces glabratus [18]): 3.9 µg/mL (≈ 9.15 µM)
MIC (Candida albicans [19]): 3.9 µg/mL (≈ 9.15 µM)
MIC (Candida albicans [20]): 3.9 µg/mL (≈ 9.15 µM)
MIC (Candida albicans [21]): 3.9 µg/mL (≈ 9.15 µM)
MIC (Candida albicans [22]): 3.9 µg/mL (≈ 9.15 µM)
Structure (SMILES): O=[N+]([O-])c1ccc(-c2nnc3c4ccc(C(F)(F)F)nc4nc(-c4ccco4)n23)cc1

Structure (SMILES): O=C(Nc1ccc(F)cc1)c1ccc(Oc2cc(C(F)(F)F)ncn2)cc1
inhibition at 50 µg/mL (Botryosphaeria dothidea): 89.8%
inhibition at 50 µg/mL (Botrytis cinerea): 90.3%

Structure (SMILES): Nc1nc(=S)[nH]c(N)c1C1=NC2=Nc3ccccc3C2=N1
inhibition zone (IZ) (Aspergillus flavus): 14 mm

Structure (SMILES): COC(=O)C1C(C(=O)OC)C(C(=O)c2ccccc2)N2N=C(c3ccc(Cl)cc3)C=CC12 (stereo unspecified)
inhibition zone (IZ) (Candida albicans [13]): 25 mm

Structure (SMILES): Oc1nnc(-c2ccc(Cl)cc2)cc1Br
inhibition zone (IZ) (Trichophyton rubrum): 14 mm

Structure (SMILES): CCc1nnc2c(Nc3ccc(C4=NN(C(N)=O)C(c5ccc(Cl)cc5)C4)cc3)nc3ccccc3n12 (stereo unspecified)
inhibition zone (IZ) (Aspergillus fumigatus): 22 mm
inhibition zone (IZ) [10]: 21 mm

Structure (SMILES): COc1cccc(/C=N/Nc2ncnc3[nH]ccc23)c1
inhibition zone (IZ) (Saccharomyces cerevisiae): 24 mm
inhibition zone (IZ) (Candida albicans [11]): 30 mm

Structure (SMILES): CCc1ccccc1/N=N/c1c(N)nc2c(/N=N/c3ccccc3CC)cnn2c1N
inhibition zone (IZ) (Candida albicans [23]): 21 mm

Structure (SMILES): CCc1nnc2c(Nc3ccc(C4=NN(C(N)=S)C(c5ccccc5)C4)cc3)nc3ccccc3n12 (stereo unspecified)
inhibition zone (IZ) [10]: 20 mm

MIC (Candida albicans [7]): 4 µg/mL
Structure (SMILES): Cc1nc(-c2ccc(C(C)(C)C)cc2)sc1-c1ccnc(N[C@H]2CC[C@H](N)CC2)n1

EC50 (Candida albicans [1]): 0.2 µg/mL (≈ 0.466 µM)
EC50 (Aspergillus niger [2]): 0.2 µg/mL (≈ 0.466 µM)
Structure (SMILES): CC(=O)N1N=C(C2=C(C)NC(=O)NC2c2ccc(F)cc2)OC1c1ccc(Cl)cc1 (stereo unspecified)

Structure (SMILES): Cc1nc(Oc2ccc(C(=O)Nc3ccc(Br)c(Cl)c3)cc2)cc(C(F)(F)F)n1
inhibition at 50 µg/mL (Botrytis cinerea): 83.8%

Structure (SMILES): COC(=O)C1C(C(=O)OC)C(C(=O)c2ccc([N+](=O)[O-])cc2)N2N=C(c3ccc(Cl)cc3)C=CC12 (stereo unspecified)
inhibition zone (IZ) (Candida albicans [13]): 24 mm

MIC (Candida albicans [7]): 4 µg/mL
Structure (SMILES): Cc1nc(-c2ccc(C(C)(C)C)cc2)sc1-c1ccnc(N[C@H]2CCCC[C@@H]2N)n1

Structure (SMILES): CCOC(=O)C1CC(C(=O)c2ccccc2)N2N=C(c3ccc(Cl)cc3)C=CC12 (stereo unspecified)
inhibition zone (IZ) (Candida albicans [13]): 24 mm
